Here are results for four compounds from patent US20170140097A1, “Methods For Identifying Agents With Desired Biological Activity” (The Procter & Gamble Company, priority 2012, published 2017).

Test [1] concerns dandruff average condition profile. The test can be described thus: Signature-free query for agents with gene expression profiles most different from a query condition (dandruff) (FIG. 17). Particulars: greater distance = more likely to reverse the condition. An excerpt: Turning next to the method 110, FIG. 10 depicts a method 150 for performing a query for perturbagens eliciting a biological response that is dissimilar to that induced by a condition (e.g., chemicals likely to reverse a particular condition in a cell) (block 112). The method includes determining an average condition profile to use as a query (block 152), as described above. Specifically, the average condition profile (also referred to as an “adjusted condition gene expression profile”) may be calculated by finding the average expression value for each of the subset of probes used to learn the expression matrix. That is, if all of probes ID1-IDN (referring to FIG. 13) were used to learn the expression matrix, the average expression profile for a condition tested in instances 3A-10A and 3B-10B would include an average expression value for probe ID1: The average condition profile is projected onto the projection space (block 154). The distance from the average condition profile to each of the perturbagens in the projection space matrix is determined (block 156) and, at least in some embodiments, the perturbagens are ranked according to the distance of each in the projection space from the average condition profile (block 158). In some embodiments, the distance is calculated as a cosine distance. In some embodiments, the distance is calculated as a Euclidean distance. […]

Test [2] has as its system MCF7 cell line. Briefly: Signature-free query for agents with biological activity similar to estradiol in cell line MCF7 (FIG. 15). The test is classed as cell-based. Particulars: cell line MCF7 (expresses estrogen receptors); top five and bottom five chemicals. The text has this:
Using the projection space matrix, it is possible to determine the similarity (or difference) between gene expression profiles in the projection space. The methods 100 and 110, for example, perform queries for similar biological activity (block 108) and biological dissimilarity (i.e., agents most likely to reverse a clinical endpoint) (block 112), respectively, by looking at the distances between instances depicted in the projection space matrix. Turning first to the method 100, FIG. 9 depicts a method 140 for performing a query for similar biological activity between instances mapping to two points in the projection space (e.g., for performing a query for similar activity between perturbagens) (block 108). […]
A query perturbagen (also referred to as a query agent) is then selected from the perturbagens in the projection space matrix (block 144). […] The distance from the query perturbagen in the projection space is calculated for each instance (or for a selected subset of instances) in the projection space matrix (block 146). In some embodiments, the distance is calculated as a cosine distance. In some embodiments, the distance is calculated as a Euclidean distance. […]
With reference to FIGS. 15 and 16, the effect of different perturbagens on different cell types at the transcriptional level is readily apparent. […]

For `CC(C)(C)C(=O)C(Oc1ccc(Cl)cc1)n1ccnc1` (stereo not shown) [Climbazole], the “ranking according to distance from the query condition” value in test [1] was “more distant from the query condition”.

For `C[C@]12CC[C@@H]3c4ccc(O)cc4C[C@@H](CCCCCCCCC[S+]([O-])CCCC(F)(F)C(F)(F)F)[C@H]3[C@@H]1CC[C@@H]2O` (stereo partly shown) [Fulvestrant], the “ranking according to distance from query perturbagen estradiol” value in test [2] was “most dissimilar”.

Consider `CC(=O)N1CCN(c2ccc(OCC3COC(Cn4ccnc4)(c4ccc(Cl)cc4Cl)O3)cc2)CC1` (stereo not shown) [Ketocanozole], for which the “ranking according to distance from the query condition” value in test [1] is “more distant from the query condition”.

Regarding `CCN(CC)CCOc1ccc(C(=C(Cl)c2ccccc2)c2ccccc2)cc1` [Clomifene], in test [2], the “ranking according to distance from query perturbagen estradiol” value was “most dissimilar”.
